From ChEMBL document CHEMBL4311959, “Discovery of a potent p38α/MAPK14 kinase inhibitor: Synthesis, in vitro/in vivo biological evaluation, and docking studies” (Eur J Med Chem, 2019)

How the values were obtained:
[1] = biological target: Tyrosine-protein kinase JAK2 (Homo sapiens) (UniProt O60674); assay: Inhibition of human JAK2 at 10 uM using poly[Glu:Tyr] (4:1) as substrate by [gamma-33P]-ATP assay relative to control
[2] = Stability in rat plasma assessed as remaining compound at 10 uM incubated for 120 mins by LC-MS analysis; format: ADME, cell-free; details: read-out: Stability
[3] = biological target: Vascular endothelial growth factor receptor 2 (Homo sapiens) (UniProt P35968); assay: Inhibition of human KDR at 10 uM using poly[Glu:Tyr] (4:1) as substrate by [gamma-33P]-ATP assay relative to control
[4] = Oral bioavailability in Sprague-Dawley rat at 10 mg/kg measured for each 30 mins by LC-MS/MS analysis; format: ADME, organism-based; details: in vivo
[5] = biological target: Fibroblast growth factor receptor 1 (Homo sapiens) (UniProt P11362); assay: Inhibition of human FGFR1 at 10 uM using KKKSPGEYVNIEFG as substrate by [gamma-33P]-ATP assay relative to control
[6] = biological target: Dual specificity mitogen-activated protein kinase kinase 6 (Homo sapiens) (UniProt P52564); assay: Inhibition of human MKK6 at 10 uM using p38alpha as substrate by [gamma-33P]-ATP assay relative to control
Rattus norvegicus = assay: Antiinflammatory activity in Sprague-Dawley rat assessed as inhibition of carrageenan-induced paw edema at 50 mg/kg, ip administered 1 hr before carrageenan stimulation and measured after 3 hrs relative to control; format: functional
[7] = biological target: Aurora kinase A (Homo sapiens) (UniProt O14965); assay: Inhibition of human Aurora A at 10 uM using [H-LRRASLG] as substrate by [gamma-33P]-ATP assay relative to control
[8] = biological target: Serine/threonine-protein kinase mTOR (Homo sapiens) (UniProt P42345); assay: Inhibition of human mTOR at 10 uM using 4EBP1 as substrate by [gamma-33P]-ATP assay relative to control
Homo sapiens [9] = species on record: Homo sapiens; assay: Selectivity index, ratio of IC50 for human c-MET to IC50 for human p38alpha
[10] = AUClast in Sprague-Dawley rat at 10 mg/kg, po measured for each 30 mins by LC-MS/MS analysis; format: ADME, organism-based; set-up: dose 10 mg/kg, route oral, time 0 - last; details: in vivo
[11] = biological target: T1, Mitogen-activated protein kinase 14 (Homo sapiens, UniProt Q16539); assay: Inhibition of human p38alpha at 10 uM using MBP as substrate by [gamma-33P]-ATP assay relative to control
[12] = Stability in human plasma assessed as remaining compound at 10 uM incubated for 120 mins by LC-MS analysis; format: ADME, cell-free; details: read-out: Stability
[13] = biological target: T1, Mitogen-activated protein kinase 14; assay: Inhibition of recombinant Nanoluc-tagged p38alpha (unknown origin) expressed in HEK293 cells incubated for 2 to 3 mins by NanoBRET assay; format: cell-based
[14] = biological target: Serine/threonine-protein kinase B-raf (Homo sapiens, UniProt P15056, V600E); assay: Inhibition of human BRAF V600E mutant using MEK1 as substrate by […]-ATP assay
[15] = biological target: Receptor-type tyrosine-protein kinase FLT3 (Homo sapiens) (UniProt P36888); assay: Inhibition of human FLT3 at 10 uM using EAIYAAPFAKKK as substrate by [gamma-33P]-ATP assay relative to control
[16] = biological target: ALK tyrosine kinase receptor (Homo sapiens) (UniProt Q9UM73); assay: Inhibition of human ALK at 10 uM using poly[Glu:Tyr] (4:1) as substrate by [gamma-33P]-ATP assay relative to control
[17] = Half life in Sprague-Dawley rat at 10 mg/kg, iv measured for each 30 mins by LC-MS/MS analysis; format: ADME, organism-based; details: in vivo
[18] = test system: Mitogen-activated protein kinase 14 (Homo sapiens), Q16539 [T106M]; assay: Inhibition of human p38alpha T106M mutant at 10 uM using MBP as substrate by [gamma-33P]-ATP assay relative to control
[19] = biological target: Cyclin-dependent kinase 2/cyclin E1 (Homo sapiens) (UniProt P24864+P24941); assay: Inhibition of human CDK2/cyclin-E at 10 uM using histone H1 as substrate by [gamma-33P]-ATP assay relative to control; format: protein-complex assay
THP-1 = assay: Inhibition of LPS-induced TNFalpha production in human THP1 cells incubated for 1 hr followed by LPS stimulation and measured after 4 hrs by TR-FRET method; format: functional, cell-based
[20] = biological target: Serine/threonine-protein kinase A-Raf (Homo sapiens) (UniProt P10398); assay: Inhibition of human ARAF at 10 uM using MEK1 as substrate by [gamma-33P]-ATP assay relative to control
[21] = test system: Serine/threonine-protein kinase B-raf (Homo sapiens), P15056 [V600E]; assay: Inhibition of human BRAF V600E mutant at 10 uM using MEK1 (K97R) as substrate by [gamma-33P]-ATP assay relative to control
Homo sapiens [22] = species on record: Homo sapiens; assay: Selectivity index, ratio of IC50 for human ERG to IC50 for human p38alpha
[23] = AUClast in Sprague-Dawley rat at 10 mg/kg, iv measured for each 30 mins by LC-MS/MS analysis; format: ADME, organism-based; set-up: dose 10 mg/kg, route intravenous, time 0 - last; details: in vivo
[24] = Stability in rat plasma assessed as remaining compound at 10 uM incubated for 30 mins by LC-MS analysis; format: ADME, cell-free; details: read-out: Stability
[25] = biological target: Glycogen synthase kinase-3 beta (Homo sapiens) (UniProt P49841); assay: Inhibition of human GSK3B at 10 uM using YRRAAVPPSPSLSRHSSPHQ(pS)EDEEE as substrate by [gamma-33P]-ATP assay relative to control
[26] = biological target: Mast/stem cell growth factor receptor Kit (Homo sapiens) (UniProt P10721); assay: Inhibition of human c-KIT at 10 uM using poly[Glu:Tyr] (4:1) as substrate by [gamma-33P]-ATP assay relative to control

T1 sequence (Q16539 whole entry): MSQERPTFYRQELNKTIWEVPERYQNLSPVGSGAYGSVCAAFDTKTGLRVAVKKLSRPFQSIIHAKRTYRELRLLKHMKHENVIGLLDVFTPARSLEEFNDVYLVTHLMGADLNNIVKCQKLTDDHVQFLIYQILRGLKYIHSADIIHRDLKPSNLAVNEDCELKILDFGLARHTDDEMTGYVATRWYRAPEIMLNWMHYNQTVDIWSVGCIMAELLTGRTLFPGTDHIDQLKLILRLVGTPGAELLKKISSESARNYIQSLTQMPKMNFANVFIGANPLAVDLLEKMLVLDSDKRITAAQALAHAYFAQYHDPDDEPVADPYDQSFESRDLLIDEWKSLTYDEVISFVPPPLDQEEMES
Chain of Fibroblast growth factor receptor 1 (Homo sapiens) (P11362 22-822 limits assumed): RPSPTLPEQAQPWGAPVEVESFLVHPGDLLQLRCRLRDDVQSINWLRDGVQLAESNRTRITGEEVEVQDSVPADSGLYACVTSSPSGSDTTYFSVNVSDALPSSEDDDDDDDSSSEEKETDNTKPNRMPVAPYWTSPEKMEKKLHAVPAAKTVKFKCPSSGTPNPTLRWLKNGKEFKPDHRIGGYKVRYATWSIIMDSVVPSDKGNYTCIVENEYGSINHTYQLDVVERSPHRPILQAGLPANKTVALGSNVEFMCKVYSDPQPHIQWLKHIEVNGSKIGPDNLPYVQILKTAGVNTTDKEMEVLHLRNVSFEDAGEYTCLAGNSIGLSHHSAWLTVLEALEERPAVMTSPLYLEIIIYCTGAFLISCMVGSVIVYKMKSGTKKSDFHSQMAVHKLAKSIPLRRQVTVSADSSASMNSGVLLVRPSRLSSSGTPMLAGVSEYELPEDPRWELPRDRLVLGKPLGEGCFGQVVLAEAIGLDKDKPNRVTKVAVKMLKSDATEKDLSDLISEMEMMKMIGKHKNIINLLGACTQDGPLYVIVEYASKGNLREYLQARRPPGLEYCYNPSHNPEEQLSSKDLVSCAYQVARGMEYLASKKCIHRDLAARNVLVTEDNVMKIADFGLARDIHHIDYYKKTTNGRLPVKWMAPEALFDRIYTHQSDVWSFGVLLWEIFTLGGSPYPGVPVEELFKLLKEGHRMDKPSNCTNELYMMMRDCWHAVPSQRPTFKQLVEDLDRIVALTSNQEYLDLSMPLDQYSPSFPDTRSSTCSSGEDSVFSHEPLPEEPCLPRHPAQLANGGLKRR
Chain of Vascular endothelial growth factor receptor 2 (Homo sapiens) (P35968 whole entry): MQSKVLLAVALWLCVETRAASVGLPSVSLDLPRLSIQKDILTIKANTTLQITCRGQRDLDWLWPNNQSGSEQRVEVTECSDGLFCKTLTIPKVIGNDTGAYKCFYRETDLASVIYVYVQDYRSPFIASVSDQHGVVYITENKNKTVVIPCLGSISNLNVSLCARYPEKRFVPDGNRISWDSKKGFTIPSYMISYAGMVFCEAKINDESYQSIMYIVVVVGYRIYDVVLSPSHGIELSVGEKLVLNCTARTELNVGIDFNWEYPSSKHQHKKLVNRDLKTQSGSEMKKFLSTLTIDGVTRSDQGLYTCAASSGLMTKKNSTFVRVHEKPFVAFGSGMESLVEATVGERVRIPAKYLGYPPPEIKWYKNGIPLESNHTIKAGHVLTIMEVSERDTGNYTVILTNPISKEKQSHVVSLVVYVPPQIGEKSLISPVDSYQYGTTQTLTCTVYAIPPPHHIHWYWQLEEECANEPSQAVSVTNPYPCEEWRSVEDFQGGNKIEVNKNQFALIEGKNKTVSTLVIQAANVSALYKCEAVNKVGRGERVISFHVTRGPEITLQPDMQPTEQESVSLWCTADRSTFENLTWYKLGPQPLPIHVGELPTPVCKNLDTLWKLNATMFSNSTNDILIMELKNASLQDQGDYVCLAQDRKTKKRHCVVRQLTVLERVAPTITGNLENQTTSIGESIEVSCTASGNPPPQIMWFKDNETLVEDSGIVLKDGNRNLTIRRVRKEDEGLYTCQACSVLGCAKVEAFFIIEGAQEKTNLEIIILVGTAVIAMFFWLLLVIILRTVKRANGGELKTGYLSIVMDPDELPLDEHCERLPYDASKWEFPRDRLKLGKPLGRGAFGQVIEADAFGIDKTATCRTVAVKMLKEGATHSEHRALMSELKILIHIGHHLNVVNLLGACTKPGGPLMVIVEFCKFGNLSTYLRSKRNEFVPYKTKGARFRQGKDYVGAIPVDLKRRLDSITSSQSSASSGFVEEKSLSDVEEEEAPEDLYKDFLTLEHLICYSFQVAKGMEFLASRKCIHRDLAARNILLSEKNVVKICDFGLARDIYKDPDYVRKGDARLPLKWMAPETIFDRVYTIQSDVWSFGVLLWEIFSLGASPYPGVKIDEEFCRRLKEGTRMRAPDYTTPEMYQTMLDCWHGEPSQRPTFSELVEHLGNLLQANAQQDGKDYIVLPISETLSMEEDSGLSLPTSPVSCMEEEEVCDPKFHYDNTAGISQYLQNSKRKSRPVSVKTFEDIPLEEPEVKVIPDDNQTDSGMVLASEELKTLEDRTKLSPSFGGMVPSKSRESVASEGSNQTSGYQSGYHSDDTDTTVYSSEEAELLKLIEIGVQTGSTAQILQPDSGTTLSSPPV
Chain of Dual specificity mitogen-activated protein kinase kinase 6 (Homo sapiens) (P52564 whole entry): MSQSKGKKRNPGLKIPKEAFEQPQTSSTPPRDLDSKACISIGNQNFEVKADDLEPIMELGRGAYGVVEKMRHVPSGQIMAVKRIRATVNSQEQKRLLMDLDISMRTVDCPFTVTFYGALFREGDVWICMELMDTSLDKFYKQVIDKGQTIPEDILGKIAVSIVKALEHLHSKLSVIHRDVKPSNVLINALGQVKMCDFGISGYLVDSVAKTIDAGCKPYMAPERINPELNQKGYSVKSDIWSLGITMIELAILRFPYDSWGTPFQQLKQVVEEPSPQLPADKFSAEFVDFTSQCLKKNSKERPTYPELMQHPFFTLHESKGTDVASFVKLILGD
Chain of Serine/threonine-protein kinase B-raf (P15056 2-766 V600E limits assumed): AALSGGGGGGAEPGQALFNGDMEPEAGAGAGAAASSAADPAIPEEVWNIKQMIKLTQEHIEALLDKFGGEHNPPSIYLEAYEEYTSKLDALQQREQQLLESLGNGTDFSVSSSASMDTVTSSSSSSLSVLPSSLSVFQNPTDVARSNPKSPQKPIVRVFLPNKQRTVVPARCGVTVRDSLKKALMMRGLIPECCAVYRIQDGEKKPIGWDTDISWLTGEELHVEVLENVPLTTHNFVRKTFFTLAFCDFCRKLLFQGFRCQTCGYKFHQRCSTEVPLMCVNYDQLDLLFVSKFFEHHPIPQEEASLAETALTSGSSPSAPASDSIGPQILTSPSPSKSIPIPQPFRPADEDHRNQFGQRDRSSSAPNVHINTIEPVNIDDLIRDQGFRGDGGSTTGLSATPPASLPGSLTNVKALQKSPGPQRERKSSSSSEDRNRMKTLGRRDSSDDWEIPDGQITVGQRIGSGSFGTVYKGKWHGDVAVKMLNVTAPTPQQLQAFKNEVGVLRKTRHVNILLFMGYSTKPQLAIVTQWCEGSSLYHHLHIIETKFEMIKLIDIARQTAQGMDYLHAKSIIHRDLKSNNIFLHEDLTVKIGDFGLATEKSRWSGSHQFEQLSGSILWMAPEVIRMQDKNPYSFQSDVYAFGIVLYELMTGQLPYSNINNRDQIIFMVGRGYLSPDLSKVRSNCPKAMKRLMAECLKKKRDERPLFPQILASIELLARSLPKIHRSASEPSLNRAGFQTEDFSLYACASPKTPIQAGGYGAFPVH
Chain of Tyrosine-protein kinase JAK2 (Homo sapiens) (O60674 whole entry): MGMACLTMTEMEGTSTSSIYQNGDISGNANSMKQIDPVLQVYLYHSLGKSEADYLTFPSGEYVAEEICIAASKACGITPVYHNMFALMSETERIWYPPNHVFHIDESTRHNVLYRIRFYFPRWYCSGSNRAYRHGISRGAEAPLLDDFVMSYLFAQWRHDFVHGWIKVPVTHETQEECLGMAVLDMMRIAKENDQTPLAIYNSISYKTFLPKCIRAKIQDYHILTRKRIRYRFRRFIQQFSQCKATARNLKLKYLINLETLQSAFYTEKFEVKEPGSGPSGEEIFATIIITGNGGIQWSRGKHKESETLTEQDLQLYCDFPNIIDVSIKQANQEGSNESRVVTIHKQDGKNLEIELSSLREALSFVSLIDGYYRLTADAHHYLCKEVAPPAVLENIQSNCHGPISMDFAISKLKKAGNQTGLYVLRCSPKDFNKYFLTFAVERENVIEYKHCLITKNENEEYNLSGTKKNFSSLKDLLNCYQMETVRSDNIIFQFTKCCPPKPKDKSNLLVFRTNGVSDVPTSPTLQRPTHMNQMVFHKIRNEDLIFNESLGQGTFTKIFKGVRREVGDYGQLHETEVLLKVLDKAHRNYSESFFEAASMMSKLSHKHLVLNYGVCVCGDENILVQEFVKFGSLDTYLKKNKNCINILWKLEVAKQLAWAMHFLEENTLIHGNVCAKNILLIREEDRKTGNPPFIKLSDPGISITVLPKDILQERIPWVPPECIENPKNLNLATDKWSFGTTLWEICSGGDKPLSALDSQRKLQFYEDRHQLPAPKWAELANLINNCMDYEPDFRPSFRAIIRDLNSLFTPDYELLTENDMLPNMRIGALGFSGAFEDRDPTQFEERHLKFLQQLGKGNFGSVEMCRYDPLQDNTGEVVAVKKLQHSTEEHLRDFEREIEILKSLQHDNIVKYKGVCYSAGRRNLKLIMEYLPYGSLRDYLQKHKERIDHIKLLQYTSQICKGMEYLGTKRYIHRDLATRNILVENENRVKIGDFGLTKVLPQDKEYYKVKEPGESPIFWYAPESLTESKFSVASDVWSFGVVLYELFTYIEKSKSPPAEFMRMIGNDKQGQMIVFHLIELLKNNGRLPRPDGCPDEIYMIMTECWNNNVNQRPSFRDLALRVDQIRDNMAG
Chain of Mitogen-activated protein kinase 14 (Homo sapiens), Q16539 [T106M] (Q16539 whole entry T106M): as the sequence (Q16539 whole entry) above, with T106M counted along it

COc1ccc(-c2nn(-c3cccc(NC(=O)c4cccc(C(F)(F)F)c4)c3)cc2-c2ccncc2)cc1Cl
inhibition [1]: -9.88%
remaining at 2 h, 10 µM [2]: 100%
inhibition [3]: 13.2%
bioavailability [4]: 11.3%
inhibition [5]: 24.4%
inhibition [6]: 29.5%
inhibition in vivo at 50 mg/kg (Rattus norvegicus): 66.5%
inhibition [7]: 3.1%
inhibition [8]: 6.75%
Ratio IC50 (Homo sapiens [9]): 455
AUC(0-t) at 0.5 h [10]: 0.165 µg·h/mL
inhibition [11]: 94.6%
remaining at 2 h, 10 µM [12]: 98.4%
EC50 [13]: 0.52 µM
IC50 [14]: 0.158 µM
inhibition [15]: -5.65%
inhibition [16]: 3.5%
half-life [17]: 6.4 h
inhibition [18]: -4.1%
inhibition [19]: 2.43%
IC50 (THP-1): 0.058 µM
inhibition [20]: 64.2%
inhibition [21]: 90.8%
Ratio IC50 (Homo sapiens [22]): 23.8
AUC(0-t) at 0.5 h [23]: 1.45 µg·h/mL
remaining at 0.5 h, 10 µM [24]: 100%
inhibition [25]: -6.34%
inhibition [26]: 5.66%
